In ChEMBL document CHEMBL1201862, “PubChem BioAssay data set” (2004):
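Briefly, cells in 96-well plates were exposed to five compound concentrations for 48 h, and endpoints were estimated by linear interpolation. Abbreviation: GI50, concentration required for 50% inhibition of growth.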 Active and inactive are the calls of the source. Rule as the data show it: active = GI50 up to about 1.1 µM and inactive = higher.

What was measured:
Assay in all cases: NCI tumour cell line growth inhibition, 48 h
Hs-578T = test system: Hs-578T
KM12 = test system: KM12
RXF 393 = test system: RXF 393
K562 = test system: K562
A498 = test system: A498
CCRF-CEM = test system: CCRF-CEM
HCT-116 = test system: HCT-116
UACC-257 = test system: UACC-257
SF-539 = test system: SF-539
NCI-H226 = test system: NCI-H226
SR = test system: SR
UO-31 = test system: UO-31
NCI-H460 = test system: NCI-H460
MDA-MB-231 = test system: MDA-MB-231
HCT-15 = test system: HCT-15
OVCAR-5 = test system: OVCAR-5
EKVX = test system: EKVX
Malme-3M = test system: Malme-3M
SK-OV-3 = test system: SK-OV-3
BT-549 = test system: BT-549
M14 = test system: M14
U-251 = test system: U-251
UACC-62 = test system: UACC-62
HOP-62 = test system: HOP-62
LOX IMVI = test system: LOX IMVI
IGROV-1 = test system: IGROV-1
COLO 205 = test system: COLO 205
NCI/ADR-RES = test system: NCI/ADR-RES
HT-29 = test system: HT-29
SK-MEL-28 = test system: SK-MEL-28
RPMI-8226 = test system: RPMI-8226
A549 = test system: A549
SF-295 = test system: SF-295
SN12C = test system: SN12C
PC-3 = test system: PC-3
CAKI-1 = test system: CAKI-1
OVCAR-4 = test system: OVCAR-4
ACHN = test system: ACHN
HL-60 = test system: HL-60
SW-620 = test system: SW-620
SK-MEL-2 = test system: SK-MEL-2
NCI-H522 = test system: NCI-H522
MOLT-4 = test system: MOLT-4
SNB-75 = test system: SNB-75
786-0 = test system: 786-0
SF-268 = test system: SF-268
SNB-19 = test system: SNB-19
NCI-H23 = test system: NCI-H23
DU-145 = test system: DU-145
MDA-N = test system: MDA-N
MDA-MB-435 = test system: MDA-MB-435
OVCAR-3 = test system: OVCAR-3
OVCAR-8 = test system: OVCAR-8
SK-MEL-5 = test system: SK-MEL-5
TK-10 = test system: TK-10
T47D = test system: T47D
HOP-92 = test system: HOP-92

CC1(C)CCCCCCC2CC2CCCCCC(C)(C)C1=O (configuration not stated)
GI50 (Hs-578T): > 100 µM (inactive) | GI50 (KM12): 92.5 µM (inactive) | GI50 (RXF 393): 24.3 µM (inactive) | GI50 (K562): 29.9 µM (inactive) | GI50 (A498): > 100 µM (inactive) | GI50 (CCRF-CEM): 19.1 µM (inactive) | GI50 (HCT-116): 39.1 µM (inactive) | GI50 (UACC-257): 37.8 µM (inactive) | GI50 (SF-539): > 100 µM (inactive) | GI50 (NCI-H226): > 100 µM (inactive) | GI50 (SR): 0.787 µM (active) | GI50 (UO-31): > 100 µM (inactive) | GI50 (NCI-H460): 66.2 µM (inactive) | GI50 (MDA-MB-231): 60.3 µM (inactive) | GI50 (HCT-15): 78.7 µM | GI50 (OVCAR-5): > 100 µM (inactive) | GI50 (EKVX): 41.9 µM (inactive) | GI50 (Malme-3M): > 100 µM (inactive) | GI50 (SK-OV-3): > 100 µM (inactive) | GI50 (BT-549): > 100 µM (inactive) | GI50 (M14): > 100 µM (inactive) | GI50 (U-251): 36.6 µM (inactive) | GI50 (UACC-62): > 100 µM (inactive) | GI50 (HOP-62): > 100 µM (inactive) | GI50 (LOX IMVI): 19.8 µM (inactive) | GI50 (IGROV-1): > 100 µM (inactive) | GI50 (COLO 205): 63.1 µM (inactive) | GI50 (NCI/ADR-RES): 99.3 µM (inactive) | GI50 (HT-29): 42 µM (inactive) | GI50 (SK-MEL-28): > 100 µM (inactive) | GI50 (RPMI-8226): 24.4 µM (inactive) | GI50 (A549): 45.7 µM (inactive) | GI50 (SF-295): > 100 µM (inactive) | GI50 (SN12C): > 100 µM (inactive) | GI50 (PC-3): > 100 µM (inactive) | GI50 (CAKI-1): > 100 µM (inactive) | GI50 (OVCAR-4): > 100 µM (inactive) | GI50 (ACHN): > 100 µM (inactive) | GI50 (HL-60): 16.6 µM (inactive) | GI50 (SW-620): > 100 µM (inactive) | GI50 (SK-MEL-2): 40.6 µM (inactive) | GI50 (NCI-H522): 51.9 µM (inactive) | GI50 (MOLT-4): 33.5 µM (inactive) | GI50 (SNB-75): > 100 µM (inactive) | GI50 (786-0): 64 µM (inactive) | GI50 (SF-268): > 100 µM (inactive) | GI50 (SNB-19): > 100 µM (inactive) | GI50 (NCI-H23): 69.2 µM (inactive) | GI50 (DU-145): > 100 µM (inactive) | GI50 (MDA-N): 88.3 µM (inactive) | GI50 (MDA-MB-435): 49.9 µM (inactive) | GI50 (OVCAR-3): 76.4 µM (inactive) | GI50 (OVCAR-8): > 100 µM (inactive) | GI50 (SK-MEL-5): 49.7 µM (inactive) | GI50 (TK-10): > 100 µM (inactive) | GI50 (T47D): 36.9 µM (inactive) | GI50 (HOP-92): 62.5 µM (inactive)
